# Experimental data: patent US12268727B2, “Bioactive polypeptides for improvements in plant protection, growth and productivity” (priority 2017, dated 2025)
# “And” between values parts separate entries of the source, which are not always exact repeats. Identical values can stand only once. Like-named read-outs stand apart in the source and are kept apart here.
# Tests used:
# Type in all cases: in vivo
# squash = assay: Foliar application to squash, yield; conditions: Crookneck squash; for change in fruit weight vs surfactant only control / increase in weight of harvested squash fruit per plant: Bt.4Q7Flg22 2.0 Fl. oz/Ac, Gm.RHPP 3.2 Fl. oz/Ac
# Description: Formulation 2 (F2) consists of the D RI Bt.4Q7 Flg22 applied with 0.01% (wv) non-ionic surfactant. […] Yield comparisons were made between the plants treated with the foliar Bt.4Q7Flg22 F1 and F2 spray applications compared to the control (water) or non-treated squash plants. Squash plants were cultivated in sandy loam soil as follows. 2.5 cm holes were cut in 2.5 ft. (0.76 m) wide plastic covered mounds, two rows per mound, holes spaced 1.5 ft (0.46 m) apart within each row. Rows were staggered within the mound. Mounds were spaced 4 ft (1.2 m) apart. Three squash seeds were planted per hole and thinned to a single plant per hole 14 days after planting. Drip irrigation tubing was laid in the center of each mound, and plants were watered as necessary.
# Squash plants were grown from seed in raised beds until bloom, and foliar treated in the same Florida (FL) location using two replicated trials or two separate harvests. Yield for the foliar Bt.4Q7Flg22 applied F1 and F2 treated plants is reported as the number of squash per plant, the weight (grams) per squash and the total squash yield (lbs/Ac) and represented as a percentage change as compared to non-treated control plants (Table 31).
# Yield comparisons were made between the plants treated with the polypeptides compared to surfactant only control plants, with three replicates per treatment. […] Replicates with average yield per plant 50% above or 50% below the median yield for the trial were excluded as outliers.
# Squash plants were cultivated in sandy loam soil as follows. 2.5 cm holes were cut in 0.76 meters wide plastic covered mounds, two rows per mound, holes spaced 0.46 meters apart within each row. Rows were staggered within the mound. Mounds were spaced 1.2 meters apart. Three squash seeds were planted per hole and thinned to a single plant per hole 14 days after planting. Drip irrigation tubing was laid in the center of each mound, and plants were watered as necessary.
# Phakopsora pachyrhizi = assay: Asian soybean rust severity and defoliation, field trials in Paraguay; conditions: for defoliation: Yatytay site; for less Asian soybean rust leaf area damage than untreated control: two foliar applications from R1, 150 and 300 mL/Ha
# soybean [1] = assay: Soybean yield in trials infected with Phakopsora pachyrhizi and Cercospora kikuchii, Paraguay; conditions: for yield increase vs untreated control: FOX Fungicide where combined
# Description: Beginning at the R1 stage of development, soybean plants received two foliar applications of the compositions described in Table 90 with an interval of 13-14 days between spray applications. Foliar treatments were applied to a single soy variety (which one? Same at all 3 sites) at the three sites, with 4 replicated plots (3×10 meters, 30 m2; with minimum of 6 rows per treatment). Disease assessments for trials that were naturally infected were scored for the severity of infection (0-100% of foliage affected) were scored for 10 plants within each plot for both Asian soybean rust caused by Phakopsora pachyrhizi and Cercospora leaf blight of soybean caused by Cercospora kikuchii at the R4-R5 stage of soy development (4-15 days after second foliar application) with guidance from Godoy et al (1997; Journal of plant diseases and protection 104:336-345). Percent phytotoxicity (0-100% of foliage affected) was also scored at the R4-R5 stage of soy development. Severity of infection and phytotoxicity were averaged across all four replicates per site (Total=12 replicates, 3 sites with 4 replicates each). Standard deviation for each treatment between the three sites was calculated.
# corn = conditions: for yield advantage: third study, 10-11 sites
# soybean [2] = assay: Foliar application to soybean, field yield trials; conditions: for average yield change vs non-treated control: Flg22 polypeptides 0.33 Fl. oz/Ac, RHPP 4 Fl. oz/Ac
# soybean [3] = assay: Foliar application to soybean, field yield trials; conditions: foliar at R2, AG2836, 7 US Midwest locations
# Cercospora kikuchii = assay: Cercospora leaf blight severity, field trials in Paraguay; conditions: two foliar applications from R1, 150 and 300 mL/Ha
# Description: FOX is a commercially available foliar fungicide in South America with limited efficacy for preventative and curative treatment of Asian soybean rust caused by Phakopsora pachyrhizi and Cercospora leaf blight of soybean caused by Cercospora kikuchii applied as a foliar spray following the recommendations on the specimen label at a use rate of 5.48 fluid ounces per acre (Fl. oz/Ac) (400 mL/hectare). Beginning at the R1 stage of development, soybean plants received two foliar applications of the compositions described in Table 90 with an interval of 13-14 days between spray applications. […] Disease assessments for trials that were naturally infected were scored for the severity of infection (0-100% of foliage affected) were scored for 10 plants within each plot for both Asian soybean rust caused by Phakopsora pachyrhizi and Cercospora leaf blight of soybean caused by Cercospora kikuchii at the R4-R5 stage of soy development (4-15 days after second foliar application) with guidance from Godoy et al (1997; Journal of plant diseases and protection 104:336-345). Percent phytotoxicity (0-100% of foliage affected) was also scored at the R4-R5 stage of soy development. […] Standard deviation for each treatment between the three sites was calculated. […]
# [4] = combined average of two corn hybrids, two years
# [5] = foliar 0.33 Fl. oz/Ac, V5-V8, first year trials, 10 locations
# [6] = foliar 0.33 Fl. oz/Ac, V8 corn Dekalb 5064, second year trials
# [7] = foliar at V5, 2 hybrids, 2 IL locations with drought-like conditions, 16.7 μM, 4.0 Fl. oz/Ac
# [8] = foliar at V5, 2 hybrids, 2 IL locations with drought-like conditions, 16.7 μM, 48.0 Fl. oz/Ac
# [9] = foliar at R2, 7 US Midwest locations, use rate 0.33 Fl. oz/Ac
# [10] = foliar at R2, 7 US Midwest locations, use rate 4.0 Fl. oz/Ac
# [11] = foliar at R2, 7 US Midwest locations, use rate 8.0 Fl. oz/Ac
# [12] = foliar at R2, AG3536, 7 US Midwest locations, use rate 0.33 Fl. oz/Ac
# [13] = V5 corn, 8.0 Fl. oz/Ac, 6 locations combined
# [14] = foliar at V5, 100 μM, 8.0 Fl. oz/Ac, 6 US Midwest locations
# [15] = foliar at R2, average of AG3536 and AG3832, use rate RHPP 4.0, N-RAGE MAX 128 Fl. oz/Ac
substance,measurement,setting,value
Bt.4Q7Flg22: Flg22 polypeptide (22 amino acids) from flagellin of Bacillus thuringiensis strain 4Q7 (DRLSSGKRINSASDDAAGLAIA; listed as Bacillus thuringiensis),change in fruit weight vs surfactant only control,squash,4.4%
same,increase in weight of harvested squash fruit per plant,squash,31.7 grams
same,defoliation,"Phakopsora pachyrhizi; R7, 150 mL/Ha",70%
same,defoliation,"Phakopsora pachyrhizi; R7, 300 mL/Ha",60%
same,less Asian soybean rust leaf area damage than untreated control,Phakopsora pachyrhizi,12.4-13.0%
same,increase in yield (relative),"soybean [1]; Bt.4Q7Flg22 300 mL/Ha, FOX Fungicide at label rate",36.1%
same,yield increase vs untreated control,soybean [1]; polypeptide 150 mL/Ha,342.2 kg/Ha
same,yield increase vs untreated control,soybean [1]; polypeptide 300 mL/Ha,427.2 kg/Ha
same,average yield change vs STRATEGO YLD fungicide alone,"corn; V5 corn, 2 hybrids, 2 locations Iowa, applied with STRATEGO YLD 4.0 Fl. oz/Ac",5.50 Bu/Ac
same,increase in yield vs base seed treatment + surfactant control,"corn; V5 corn, 3 DEKALB hybrids, 6-8 locations, 4.0 Fl. oz/Ac",1.14 Bu/Ac
same,yield increase over non-treated control,"corn; V8 corn Dekalb 5064, 6 locations, Bt.4Q7Flg22 0.33 Fl. oz/Ac, STRATEGO YLD 4.0 Fl. oz/Ac",4.84 Bu/Ac
same,2-year average yield increase,corn; [4],8.0 Bu/Ac
same,"win rate, multiple year",corn; [4],86%
same,yield increase over surfactant control,"corn; drought-like conditions, 2 hybrids, 2 IL locations, 16.7 μM at 4.0 Fl. oz/Ac, cellobiose 320 mM where combined",3.70 Bu/Ac
same,yield increase over control,"corn; drought-like conditions, V5-V7, highest use rate",~27 Bu/Ac
same,average yield increase vs non-treated control,corn; [5],11.60 Bu/Ac and > 11 Bu/Ac
same,win rate,corn; [5],90%
same,average yield increase over control,corn; [6],4.8 Bu/Ac and ~5 Bu/Ac
same,win rate,corn; [6],83%
same,Average Change in Yield (Bu/Ac) compared to Surfactant control,corn; [7],+3.70 Bu/Ac
same,Average Yield Bu/Ac,corn; [7],96.46 Bu/Ac
same,Average Change in Yield (Bu/Ac) compared to Surfactant control,corn; [8],+26.61 Bu/Ac
same,Average Yield Bu/Ac,corn; [8],119.37 Bu/Ac
same,Average Total Yield Bu/Ac (6 locations),"corn; foliar at V8, corn hybrid Dekalb 5064, Bt.4Q7Flg22 0.33 Fl. oz/Ac, STRATEGO YLD 4.0 Fl. oz/Ac",192.21 Bu/Ac
same,Average Bu/Ac Increase compared to Control,"corn; foliar at V8, corn hybrid Dekalb 5064, Bt.4Q7Flg22 0.33 Fl. oz/Ac, STRATEGO YLD 4.0 Fl. oz/Ac, 6 locations",+4.84 Bu/Ac
same,yield advantage,"corn; V5-V8, 0.33 Fl. oz/Ac (25 nM)",5.75 Bu/Ac
same,yield advantage,"corn; V5-V8, 4 Fl. oz/Ac (300 nM)",3.77 Bu/Ac
same,yield advantage,"corn; V5-V8, 8 Fl. oz/Ac (600 nM)",5.05 Bu/Ac
same,win rate,"soybean [2]; R2 foliar 0.33 Fl. oz/Ac, 11 locations",64%
same,yield advantage,"soybean [2]; R2 foliar, 8 Fl. oz/Ac, 11 sites",0.88 Bu/Ac
same,average yield change vs non-treated control,"soybean [2]; R2 foliar, 11 locations",−0.1 Bu/Ac
same,Average Bu/Ac Increase compared to Control Variety 1 and 2,soybean [2]; [9],+0.45 Bu/Ac
same,Average Total Yield Bu/Ac Variety 1 and 2,soybean [2]; [9],61.02 Bu/Ac
same,Average Bu/Ac Increase compared to Control Variety 1 and 2,soybean [2]; [10],+0.33 Bu/Ac
same,Average Total Yield Bu/Ac Variety 1 and 2,soybean [2]; [10],60.90 Bu/Ac
same,Average Bu/Ac Increase compared to Control Variety 1 and 2,soybean [2]; [11],+0.88 Bu/Ac
same,Average Total Yield Bu/Ac Variety 1 and 2,soybean [2]; [11],61.45 Bu/Ac
same,Average Total Yield Bu/Ac Variety 2,soybean [2]; [12],61.61 Bu/Ac
same,Average Total Yield Bu/Ac Variety 2,"soybean [2]; foliar at R2, AG3536, 7 US Midwest locations, use rate 4.0 Fl. oz/Ac",64.19 Bu/Ac
same,Average Total Yield Bu/Ac Variety 2,"soybean [2]; foliar at R2, AG3536, 7 US Midwest locations, use rate 8.0 Fl. oz/Ac",63.86 Bu/Ac
same,Average Total Yield Bu/Ac Variety 1,soybean [3]; use rate 0.33 Fl. oz/Ac,60.33 Bu/Ac
same,Average Total Yield Bu/Ac Variety 1,soybean [3]; use rate 4.0 Fl. oz/Ac,57.61 Bu/Ac
same,Average Total Yield Bu/Ac Variety 1,soybean [3]; use rate 8.0 Fl. oz/Ac,59.05 Bu/Ac
same,less Cercospora leaf area damage than untreated control,Cercospora kikuchii,2.8-3.5%
"GGIRAAPTGNER (Glycine max) [RHPP, Root Hair Promoting Peptide from Glycine max]",Average squash fruit weight (grams) per plant,"squash; foliar at first bloom, Bt.4Q7Flg22 16.7 μM 2 fl oz/Ac, Gm.RHPP 100 μM 3.2 fl oz/Ac, two harvests",748.4 grams
same,Percentage Change in Fruit Weight Compared to Surfactant only control,"squash; foliar at first bloom, Bt.4Q7Flg22 2 fl oz/Ac, Gm.RHPP 3.2 fl oz/Ac",+4.4%
same,change in fruit weight vs surfactant only control,squash,4.4%
same,increase in weight of harvested squash fruit per plant,squash,31.7 grams
same,defoliation,"Phakopsora pachyrhizi; R7, 150 mL/Ha",96%
same,defoliation,"Phakopsora pachyrhizi; R7, 300 mL/Ha",70%
same,less Asian soybean rust leaf area damage than untreated control,Phakopsora pachyrhizi,10.5-11.3%
same,yield increase vs untreated control,soybean [1]; polypeptide 150 mL/Ha,294.2 kg/Ha
same,yield increase vs untreated control,soybean [1]; polypeptide 300 mL/Ha,506.8 kg/Ha
same,average yield,corn; [13],more than 209 Bu/Ac
same,yield increase vs surfactant control,corn; [13],3.52 Bu/Ac
same,Average Change in Bu/Ac compared to surfactant only control,corn; [14],(+3.52; Bu/Ac
same,Average Yield Bu/Ac,corn; [14],209.67 Bu/Ac
same,win rate,"corn; foliar at V5, 100 μM, 8.0 Fl. oz/Ac, vs surfactant only control",64%
same,yield advantage on top of foliar fertilizer,"soybean [2]; 8 fl oz/Ac with foliar fertilizer, 11 sites",1 Bu/AC
same,yield increase over non-treated control,"soybean [2]; R2 foliar, 2 varieties, 7 locations, RHPP alone 4.0 Fl. oz/Ac",1.26 Bu/Ac
same,yield advantage,"soybean [2]; R2 foliar, 4 Fl. oz/Ac, 11 sites",0.31 Bu/Ac
same,average yield change vs non-treated control,"soybean [2]; R2 foliar, 11 locations",1.2 Bu/Ac
same,yield increase compared to fertilizer alone,"soybean [2]; RHPP 1 Fl. oz/Ac (300 nM) with N-RAGE MAX, R2, variety AG3536, 5 locations",1.4 Bu/Ac
same,Average Bu/Ac Increase compared to Control Variety 1 and 2,soybean [2]; [9],+0.35 Bu/Ac
same,Average Total Yield Bu/Ac Variety 1 and 2,soybean [2]; [9],60.92 Bu/Ac
same,Average Total Yield Bu/Ac Variety 2,soybean [2]; [12],62.44 Bu/Ac
same,Average Bu/Ac Change compared to Control Variety 1 and 2,soybean [2]; [15],+0.9 Bu/Ac
same,Average Total Yield Bu/Ac Variety 1 and 2,soybean [2]; [15],63.23 Bu/Ac
same,Average Total Yield Bu/Ac Variety 1,"soybean [2]; foliar at R2, variety 1 (AG3536), 5 US Midwest locations, use rate RHPP 4.0, N-RAGE MAX 128 Fl. oz/Ac",65.42 Bu/Ac
same,Average Total Yield Bu/Ac Variety 2,"soybean [2]; foliar at R2, variety 2 (AG3832), 5 US Midwest locations, use rate RHPP 4.0, N-RAGE MAX 128 Fl. oz/Ac",61.04 Bu/Ac
same,Average Total Yield Bu/Ac Variety 1,soybean [3]; use rate 0.33 Fl. oz/Ac,59.15 Bu/Ac
same,less Cercospora leaf area damage than untreated control,Cercospora kikuchii,3.3-4.5%
